In ChEMBL document CHEMBL1145395, “De novo design of selective antibiotic peptides by incorporation of unnatural amino acids” (J Med Chem, 2007):
In brackets after ≈: the same amount, converted by molar mass. Activity calls are given as the source filed them. No cut-off for these calls is given here. Starred links: 1 amine or outer side, 2 acyl side, 3 side chain; linkers in the order of their positions; H or OH if unused. Non-standard residues stand in square brackets, D forms with d. Residues, ends and D or L forms follow the SMILES beside them. ξ: configuration not given here. *: point of attachment. Biotin = O=C1N[C@H]2[C@H](CS[C@H]2CCCCC(=O)*)N1; Pro(3ξ,4ξ-(CH2)4) = O=C(O)[C@H]1NCC2CCCCC21; Oic = O=C(O)[C@@H]1C[C@@H]2CCCC[C@@H]2N1; X1 = O=C([C@@H]1CN([*:1])C2CCCCC21)[*:2]; Phe(4-F) = N[C@@H](Cc1ccc(F)cc1)C(=O)O; Tic = O=C(O)[C@@H]1Cc2ccccc2CN1; Dap = NC[C@H](N)C(=O)O; GABA = NCCCC(=O)O; βAla = NCCC(=O)O

Assays:
[1] = Toxicity to mouse RBC assessed as hemolytic activity at 100 uM; type: cell-based, Erythrocyte; conditions: red blood cells, read-out: Activity
[2] = Toxicity to mouse RBC assessed as hemolytic activity at 25 uM; type: cell-based, Erythrocyte; conditions: red blood cells, read-out: Activity
[3] = tested on: Salmonella typhimurium; assay: Antibacterial activity against Salmonella Typhimurium ATCC 13311; type: functional, Salmonella enterica subsp. enterica serovar Typhimurium; conditions: for MIC: Salmonella enterica
[4] = tested on: Staphylococcus aureus; assay: Antibacterial activity against methicillin/gentamicin/tetracycline resistant Staphylococcus aureus ATCC 33592; type: functional
[5] = tested on: Mycobacterium; assay: Antibacterial activity against Mycobacterium ranae ATCC 110; type: functional
[6] = tested on: Bacillus subtilis; assay: Antibacterial activity against Bacillus subtilis ATCC 43223; type: functional

Row | Compound | hemolysis at 100 µM [1] [%] | hemolysis at 25 µM [2] [%] | MIC [3] [µM] | MIC [4] [µM] | MIC [5] [µM] | MIC [6] [µM] | Activity ([3]; Salmonella enterica subsp. enterica serovar Typhimurium)
1 | CC(=O)NCC(=O)N[C@@H](Cc1ccccc1)C(=O)N[C@@H](Cc1ccccc1)C(=O)N1CC2CCCCC2[C@H]1C(=O)NCC(=O)N[C@@H](CCCCN)C(=O)N[C@@H](Cc1ccccc1)C(=O)N1CC2CCCCC2[C@H]1C(=O)NCC(=O)N[C@@H](Cc1ccccc1)C(=O)N[C@@H](Cc1ccccc1)C(=O)N1CC2CCCCC2[C@H]1C(=O)NCC(=O)N[C@@H](CCCCN)C(=O)N[C@@H](Cc1ccccc1)C(=O)N[C@@H](CCCCN)C(=O)N[C@@H](CCCCN)C(=O)N[C@@H](CCCCN)C(=O)N[C@@H](CCCCN)C(N)=O (stereo partly specified) (Ac-GFF[Pro(3ξ,4ξ-(CH2)4)]GKF[Pro(3ξ,4ξ-(CH2)4)]GFF[Pro(3ξ,4ξ-(CH2)4)]GKFKKKK-NH2) | 27.3 | 8.9 |  |  |  |  | 
2 | CC(=O)NCC(=O)N[C@@H](Cc1ccccc1)C(=O)NCC(=O)N1CC2CCCCC2[C@H]1C(=O)NCC(=O)N[C@@H](CCCCN)C(=O)NCC(=O)N1CC2CCCCC2[C@H]1C(=O)NCC(=O)N[C@@H](Cc1ccccc1)C(=O)NCC(=O)N1CC2CCCCC2[C@H]1C(=O)NCC(=O)N[C@@H](CCCCN)C(=O)NCC(=O)N[C@@H](CCCCN)C(=O)N[C@@H](CCCCN)C(=O)N[C@@H](CCCCN)C(=O)N[C@@H](CCCCN)C(N)=O (stereo partly specified) (Ac-GFG[Pro(3ξ,4ξ-(CH2)4)]GKG[Pro(3ξ,4ξ-(CH2)4)]GFG[Pro(3ξ,4ξ-(CH2)4)]GKGKKKK-NH2) | 3.3 | 3.3 |  |  |  |  | 
3 | CC(=O)NCC(=O)N[C@@H](Cc1ccccc1)C(=O)N1CC2CCCCC2[C@H]1C(=O)NCC(=O)N[C@@H](CCCCN)C(=O)N1CC2CCCCC2[C@H]1C(=O)NCC(=O)N[C@@H](Cc1ccccc1)C(=O)N1CC2CCCCC2[C@H]1C(=O)NCC(=O)N[C@@H](CCCCN)C(=O)N[C@@H](CCCCN)C(=O)N[C@@H](CCCCN)C(=O)N[C@@H](CCCCN)C(=O)N[C@@H](CCCCN)C(N)=O (stereo partly specified) (Ac-GF[Pro(3ξ,4ξ-(CH2)4)]GK[Pro(3ξ,4ξ-(CH2)4)]GF[Pro(3ξ,4ξ-(CH2)4)]GKKKKK-NH2) | 5.9 | 3.2 |  |  |  |  | 
4 | CC(=O)NCC(=O)N[C@@H](Cc1ccccc1)C(=O)N1Cc2ccccc2C[C@H]1C(=O)N1[C@H](C(=O)NCC(=O)N[C@@H](CN)C(=O)N2Cc3ccccc3C[C@H]2C(=O)N2[C@H](C(=O)NCC(=O)N[C@@H](Cc3ccccc3)C(=O)N3Cc4ccccc4C[C@H]3C(=O)N3[C@H](C(=O)NCC(=O)N[C@@H](CN)C(=O)N4Cc5ccccc5C[C@H]4C(=O)N[C@@H](CN)C(=O)N[C@@H](CN)C(=O)N[C@@H](CN)C(=O)N[C@@H](CN)C(N)=O)C[C@@H]4CCCC[C@@H]43)C[C@@H]3CCCC[C@@H]32)C[C@@H]2CCCC[C@@H]21 (Ac-GF[Tic][Oic]G[Dap][Tic][Oic]GF[Tic][Oic]G[Dap][Tic][Dap][Dap][Dap][Dap]-NH2) |  |  | 3 (≈ 6.57 µg/mL) | 10 (≈ 21.9 µg/mL) | 100 (≈ 219 µg/mL) | 1 (≈ 2.19 µg/mL) | 
5 | CC(=O)NCC(=O)N[C@@H](Cc1ccccc1)C(=O)N1Cc2ccccc2C[C@H]1C(=O)N1CC2CCCCC2[C@H]1C(=O)NCC(=O)N[C@@H](CCCCN)C(=O)N1Cc2ccccc2C[C@H]1C(=O)N1CC2CCCCC2[C@H]1C(=O)NCC(=O)N[C@@H](Cc1ccccc1)C(=O)N1Cc2ccccc2C[C@H]1C(=O)N1CC2CCCCC2[C@H]1C(=O)NCC(=O)N[C@@H](CCCCN)C(=O)N1Cc2ccccc2C[C@H]1C(=O)N[C@@H](CCCCN)C(=O)N[C@@H](CCCCN)C(=O)N[C@@H](CCCCN)C(=O)N[C@@H](CCCCN)C(=O)N[C@@H](CCCCN)C(N)=O (stereo partly specified) (Ac-GF[Tic][Pro(3ξ,4ξ-(CH2)4)]GK[Tic][Pro(3ξ,4ξ-(CH2)4)]GF[Tic][Pro(3ξ,4ξ-(CH2)4)]GK[Tic]KKKKK-NH2) [listing 1 of 2 here] | 24.9 | 18.9 |  |  |  |  | 
6 | CC(=O)NCC(=O)N[C@@H](Cc1ccccc1)C(=O)N1Cc2ccccc2C[C@H]1C(=O)N1CC2CCCCC2[C@H]1C(=O)NCC(=O)N[C@@H](CCCCN)C(=O)N1Cc2ccccc2C[C@H]1C(=O)N1CC2CCCCC2[C@H]1C(=O)NCC(=O)N[C@@H](Cc1ccccc1)C(=O)N1Cc2ccccc2C[C@H]1C(=O)N1CC2CCCCC2[C@H]1C(=O)NCC(=O)N[C@@H](CCCCN)C(=O)N1Cc2ccccc2C[C@H]1C(=O)N[C@@H](CCCCN)C(=O)N[C@@H](CCCCN)C(=O)N[C@@H](CCCCN)C(=O)N[C@@H](CCCCN)C(=O)N[C@@H](CCCCN)C(N)=O (stereo partly specified) (Ac-GF[Tic][Pro(3ξ,4ξ-(CH2)4)]GK[Tic][Pro(3ξ,4ξ-(CH2)4)]GF[Tic][Pro(3ξ,4ξ-(CH2)4)]GK[Tic]KKKKK-NH2) [listing 2 of 2 here] |  |  | 10 (≈ 25.7 µg/mL) | 3 (≈ 7.71 µg/mL) | 3 (≈ 7.71 µg/mL) | 1 (≈ 2.57 µg/mL) | 
7 | CC(=O)NCC(=O)N[C@@H](Cc1ccc(F)cc1)C(=O)N1Cc2ccccc2C[C@H]1C(=O)N1CC2CCCCC2[C@H]1C(=O)NCC(=O)N[C@@H](CCCCN)C(=O)N1Cc2ccccc2C[C@H]1C(=O)N1CC2CCCCC2[C@H]1C(=O)NCC(=O)N[C@@H](Cc1ccc(F)cc1)C(=O)N1Cc2ccccc2C[C@H]1C(=O)N1CC2CCCCC2[C@H]1C(=O)NCC(=O)N[C@@H](CCCCN)C(=O)N1Cc2ccccc2C[C@H]1C(=O)N[C@@H](CCCCN)C(=O)N[C@@H](CCCCN)C(=O)N[C@@H](CCCCN)C(=O)N[C@@H](CCCCN)C(N)=O (stereo partly specified) (Ac-G[Phe(4-F)][Tic][Pro(3ξ,4ξ-(CH2)4)]GK[Tic][Pro(3ξ,4ξ-(CH2)4)]G[Phe(4-F)][Tic][Pro(3ξ,4ξ-(CH2)4)]GK[Tic]KKKK-NH2) |  |  | 30 (≈ 74.3 µg/mL) | 10 (≈ 24.8 µg/mL) | 3 (≈ 7.43 µg/mL) | 0.3 (≈ 0.743 µg/mL) | 
8 | CC(=O)NCCCC(=O)N[C@@H](Cc1ccccc1)C(=O)N1Cc2ccccc2C[C@H]1C(=O)N1[C@H](C(=O)NCCCC(=O)N[C@@H](CCCCN)C(=O)N2Cc3ccccc3C[C@H]2C(=O)N2[C@H](C(=O)NCCCC(=O)N[C@@H](Cc3ccccc3)C(=O)N3Cc4ccccc4C[C@H]3C(=O)N3[C@H](C(=O)NCCCC(=O)N[C@@H](CCCCN)C(=O)N4Cc5ccccc5C[C@H]4C(=O)N[C@@H](CCCCN)C(=O)N[C@@H](CCCCN)C(=O)N[C@@H](CCCCN)C(=O)N[C@@H](CCCCN)C(=O)N[C@@H](CCCCN)C(N)=O)C[C@@H]4CCCC[C@@H]43)C[C@@H]3CCCC[C@@H]32)C[C@@H]2CCCC[C@@H]21 (Ac-[GABA]F[Tic][Oic][GABA]K[Tic][Oic][GABA]F[Tic][Oic][GABA]K[Tic]KKKKK-NH2) |  |  | 10 (≈ 26.8 µg/mL) | 30 (≈ 80.4 µg/mL) | 3 (≈ 8.04 µg/mL) | 1 (≈ 2.68 µg/mL) | 
9 | CC(=O)NCCC(=O)N[C@@H](Cc1ccc(F)cc1)C(=O)N1Cc2ccccc2C[C@H]1C(=O)N1CC2CCCCC2[C@H]1C(=O)NCCC(=O)N[C@@H](CN)C(=O)N1Cc2ccccc2C[C@H]1C(=O)N1CC2CCCCC2[C@H]1C(=O)NCCC(=O)N[C@@H](Cc1ccc(F)cc1)C(=O)N1Cc2ccccc2C[C@H]1C(=O)N1CC2CCCCC2[C@H]1C(=O)NCCC(=O)N[C@@H](CN)C(=O)N1Cc2ccccc2C[C@H]1C(=O)N[C@@H](CN)C(=O)N[C@@H](CN)C(=O)N[C@@H](CN)C(=O)N[C@@H](CN)C(N)=O (stereo partly specified) (Ac-[βAla][Phe(4-F)][Tic][Pro(3ξ,4ξ-(CH2)4)][βAla][Dap][Tic][Pro(3ξ,4ξ-(CH2)4)][βAla][Phe(4-F)][Tic][Pro(3ξ,4ξ-(CH2)4)][βAla][Dap][Tic][Dap][Dap][Dap][Dap]-NH2) |  |  | 3 (≈ 6.84 µg/mL) | 30 (≈ 68.4 µg/mL) | 100 (≈ 228 µg/mL) | 0.3 (≈ 0.684 µg/mL) | 
10 | NCCCC[C@H](NC(=O)[C@H](CCCCN)NC(=O)[C@H](CCCCN)NC(=O)[C@H](CCCCN)NC(=O)[C@@H]1Cc2ccccc2CN1C(=O)[C@H](CCCCN)NC(=O)CNC(=O)[C@@H]1C[C@@H]2CCCC[C@@H]2N1C(=O)[C@@H]1Cc2ccccc2CN1C(=O)[C@H](Cc1ccccc1)NC(=O)CNC(=O)[C@@H]1C[C@@H]2CCCC[C@@H]2N1C(=O)[C@@H]1Cc2ccccc2CN1C(=O)[C@H](CCCCN)NC(=O)CNC(=O)[C@@H]1C[C@@H]2CCCC[C@@H]2N1C(=O)[C@@H]1Cc2ccccc2CN1C(=O)[C@H](Cc1ccccc1)NC(=O)CNC(=O)CCCC[C@@H]1SC[C@@H]2NC(=O)N[C@@H]21)C(N)=O (Biotin-GF[Tic][Oic]GK[Tic][Oic]GF[Tic][Oic]GK[Tic]KKKK-NH2) |  |  | 30 (≈ 78.8 µg/mL) | 3 (≈ 7.88 µg/mL) | 10 (≈ 26.3 µg/mL) | 1 (≈ 2.63 µg/mL) | 
11 | NCCCC[C@H](NC(=O)[C@H](CCCCN)NC(=O)[C@H](CCCCN)NC(=O)[C@H](CCCCN)NC(=O)[C@@H]1Cc2ccccc2CN1C(=O)[C@H](CCCCN)NC(=O)CNC(=O)[C@@H]1C[C@@H]2CCCC[C@@H]2N1C(=O)[C@@H]1Cc2ccccc2CN1C(=O)[C@H](Cc1ccccc1)NC(=O)CNC(=O)[C@@H]1C[C@@H]2CCCC[C@@H]2N1C(=O)[C@@H]1Cc2ccccc2CN1C(=O)[C@H](CCCCN)NC(=O)CNC(=O)[C@@H]1C[C@@H]2CCCC[C@@H]2N1C(=O)[C@@H]1Cc2ccccc2CN1C(=O)[C@H](Cc1ccccc1)NC(=O)CN)C(N)=O (H-GF[Tic][Oic]GK[Tic][Oic]GF[Tic][Oic]GK[Tic]KKKK-NH2) |  |  | 3 (≈ 7.2 µg/mL) | 10 (≈ 24 µg/mL) | 10 (≈ 24 µg/mL) | 1 (≈ 2.4 µg/mL) | 
12 | CC(C)C[C@H](NC(=O)[C@@H](N)CCCCN)C(=O)N1Cc2ccccc2C[C@H]1C(=O)N1C[C@@H](C(=O)N[C@@H](CCCCN)C(=O)N2Cc3ccccc3C[C@H]2C(=O)N2C[C@@H](C(=O)N[C@@H](Cc3ccccc3)C(=O)N3Cc4ccccc4C[C@H]3C(=O)N3C[C@@H](C(=O)N[C@@H](CCCCN)C(=O)N4Cc5ccccc5C[C@H]4C(=O)N4C[C@@H](C(=O)N[C@@H](Cc5ccccc5)C(=O)N5Cc6ccccc6C[C@H]5C(=O)N5C[C@@H](C(=O)N[C@@H](CCCCN)C(=O)N6Cc7ccccc7C[C@H]6C(=O)N6C[C@@H](C(=O)N[C@@H](CCCCN)C(=O)N[C@@H](CCCNC(=N)N)C(N)=O)C7CCCCC76)C6CCCCC65)C5CCCCC54)C4CCCCC43)C3CCCCC32)C2CCCCC21 (stereo partly specified) (H-KL[Tic][X1]K[Tic][X1]F[Tic][X1]K[Tic][X1]F[Tic][X1]K[Tic][X1]KR-NH2) | 63 |  |  | 10 (≈ 30.8 µg/mL) | 30 (≈ 92.5 µg/mL) | 1 (≈ 3.08 µg/mL) | inactive
